Measured values reported in patent US4579866A, “Phenylacetamides as anti-allergy, anti-asthma and anti-inflammatory agents” (USV Pharmaceutical Corp., priority 1984, dated 1986).

Legend:
HUMAN 5 LIPOXYGENASE = target: T1, HUMAN 5 LIPOXYGENASE (Homo sapiens, UniProt P09917); experiment: Biosynthesis of 5-HETE by human polymorphonuclear leukocytes in vitro (inhibition of human 5-lipoxygenase); assay type: cell-based; conditions: human neutrophils, A23187, 3 minutes at 30° C.; for IC50: concentration at which 50% inhibition is observed, read-out: INHIBITION OF HUMAN 5 LIPOXYGENASE, I50
T1 construct: A suspension of human neutrophils in buffer; endogenous in cells; host or cells: human neutrophils (PMNs) from venous blood of healthy volunteers
T1 sequence (P09917 1-674): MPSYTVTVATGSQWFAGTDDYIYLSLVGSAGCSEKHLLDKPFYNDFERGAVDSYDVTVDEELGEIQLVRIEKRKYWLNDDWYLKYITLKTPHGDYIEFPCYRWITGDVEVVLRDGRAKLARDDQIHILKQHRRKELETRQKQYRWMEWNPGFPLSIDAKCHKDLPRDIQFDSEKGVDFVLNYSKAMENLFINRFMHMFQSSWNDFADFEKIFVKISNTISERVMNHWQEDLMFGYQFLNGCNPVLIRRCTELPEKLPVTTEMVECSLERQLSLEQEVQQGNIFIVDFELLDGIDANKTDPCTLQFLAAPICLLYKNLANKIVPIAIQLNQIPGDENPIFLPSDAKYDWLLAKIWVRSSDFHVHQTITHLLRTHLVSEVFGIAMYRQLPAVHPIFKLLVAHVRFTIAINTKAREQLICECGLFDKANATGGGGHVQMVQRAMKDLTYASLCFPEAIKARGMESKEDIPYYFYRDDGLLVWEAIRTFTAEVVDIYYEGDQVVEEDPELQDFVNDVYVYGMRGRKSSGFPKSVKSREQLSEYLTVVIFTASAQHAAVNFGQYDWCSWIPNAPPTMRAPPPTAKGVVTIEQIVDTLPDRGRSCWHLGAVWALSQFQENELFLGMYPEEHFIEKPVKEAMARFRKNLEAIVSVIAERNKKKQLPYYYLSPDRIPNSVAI
Experimental: Protocol for the Biosynthesis of 5-HETE (5(S)-Hydroxyeicosatetraenoic Acid) by Human Polymorphonuclear Leukocytes In Vitro
(A) Isolation of Human Neutrophils
Freshly drawn venous blood from healthy human volunteers is mixed with 2 mM ethylenediamine tetraacetic acid, and is sedimented at 1×g over 6% dextran-saline. The leukocyte layer is aspirated, and the cells are concentrated by centrifugation and are layered over stacked Percoll® solutions, having densities of 1.072, 1.082 and 1.100, respectively. PMNs are isolated at the interface between the two densest layers after centrifugation at 400×g. Contaminating red blood cells are lysed by a short treatment of 0.16M ammonium chloride.
A suspension of human neutrophils in buffer is incubated for 3 minutes at 30° C. with (^14 C)-arachidonic acid (AA) and calcium ionophore A23187. Citric Acid (2M)/NDGA*(10 mM) is used to quench the reaction. Following the addition of a trace amount of (^3 H)-5-HETE together with an excess of unlabeled 5-HETE to each tube, the mixture is extracted with chloroform/methanol. The organic layer is washed with dilute hydrochloric acid and the total volume is transferred to glass tubes and dried in vacuo. The residue is dissolved in a small volume of chloroform and is spotted on silica gel TLC sheets, which are developed with an ethyl acetate/iso-octane/water/acetic acid solvent system (11/5/10/1 v/v). The 5-HETE spots are visualized under UV light, cut out and placed in scintillation vials for quantitation of radioactivity. After adjusting for the extraction efficiency, the amount (pmole) of (^14 C)-5-HETE in each of the tubes is calculated. The net pmoles of 5-HETE are obtained by subtracting the pmole of 5-HETE in the tubes containing buffer alone (blank) from the pmoles of 5-HETE in the tubes containing […]. The ability of the test compound to modulate the activity of this enzyme is determined by a decrease or increase in the net amount of 5-HETE produced. This assay is a modification of that described by Bach and Brashler for rat peritoneal cells: Bach, M., Brashler, J.: Ionophore A23187-Induced Production of SRS-A by Rat Peritoneal Cells In Vitro: Evidence for Production by Mononuclear Cells. J. Immunol. 120 998-1005 (1978).
*NDGA-nordihydroguaiaretic acid
(§1) If the percentage of inhibition exceeds 50%, the compounds are then evaluated in terms of response over a range of concentrations. From a plot of response against concentration, the I50 value is obtained. The I50 value is the concentration at which 50% inhibition is observed.

RAT 5-LIPOXYGENASE = target: T2, RAT 5-LIPOXYGENASE (Rattus norvegicus, UniProt P12527); experiment: Biosynthesis of 5-HETE by rat polymorphonuclear leukocytes in vitro (inhibition of rat 5-lipoxygenase); assay type: cell-based; conditions: rat neutrophils, A23187, 3 minutes at 30° C.; concentration at which 50% inhibition is observed; read-out: INHIBITION OF RAT 5-LIPOXYGENASE, I50
T2 construct: A suspension of rat neutrophils in buffer; endogenous in cells; host or cells: rat neutrophils (polymorphonuclear leukocytes)
T2 sequence (P12527 1-673): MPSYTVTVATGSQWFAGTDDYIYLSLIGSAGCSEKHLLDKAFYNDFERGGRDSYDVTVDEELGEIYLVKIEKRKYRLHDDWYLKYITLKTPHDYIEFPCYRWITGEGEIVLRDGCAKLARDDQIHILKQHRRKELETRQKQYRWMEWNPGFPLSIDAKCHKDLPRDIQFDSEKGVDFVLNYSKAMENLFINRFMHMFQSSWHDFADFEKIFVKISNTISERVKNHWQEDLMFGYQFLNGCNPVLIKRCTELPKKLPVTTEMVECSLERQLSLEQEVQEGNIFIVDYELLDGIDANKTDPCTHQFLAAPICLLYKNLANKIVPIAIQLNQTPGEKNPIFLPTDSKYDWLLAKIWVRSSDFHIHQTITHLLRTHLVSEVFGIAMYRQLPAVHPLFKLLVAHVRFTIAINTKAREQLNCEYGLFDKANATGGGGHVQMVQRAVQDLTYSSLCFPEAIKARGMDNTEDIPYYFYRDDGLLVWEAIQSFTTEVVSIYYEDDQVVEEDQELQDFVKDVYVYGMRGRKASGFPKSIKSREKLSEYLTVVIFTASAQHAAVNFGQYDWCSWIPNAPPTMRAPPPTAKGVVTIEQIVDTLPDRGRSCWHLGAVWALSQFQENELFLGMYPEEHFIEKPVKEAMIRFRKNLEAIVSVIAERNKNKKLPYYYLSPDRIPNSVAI
Experimental: Protocol for the Biosynthesis of 5-HETE by Rat Polymorphonuclear Leukocytes In Vitro
A suspension of rat neutrophils in buffer is incubated for 3 minutes at 30° C. with [^14 C]-arachidonic acid (AA) and calcium ionophore A23187. Citric Acid (2M) NDGA (10 mM) is used to quench the reaction. Following the addition of a trace amount of (^3 H)-5-HETE together with an excess of unlabeled 5-HETE to each tube, the mixture is extracted with chloroform/methanol. The organic layer is washed with dilute acid and an aliquot is transferred to glass tubes and dried. The residue is dissolved in a small volume of chloroform and an aliquot is spotted on silica gel TLC sheets, which are developed with an ethyl acetate/isoctane/water/acetic acid solvent system. The 5-HETE spots are visualized under UV light, cut out and placed in scintillation vials for counting. After adjusting for the extraction efficiency, the amount (pmole) of [^14 C]-5-HETE in each of the tubes is quantitated. The net pmoles of 5-HETE are obtained by subtracting the pmoles of 5-HETE in the tubes containing buffer alone (blank) from the pmoles of 5-HETE in the tubes containing […]. The ability of the test compounds to modulate the activity of this enzyme is determined by a decrease or increase in the net amount of 5-HETE produced.
as §1

inhibition at 30 µM (HUMAN 5 LIPOXYGENASE) [%]	IC50 (RAT 5-LIPOXYGENASE) [µM]	IC50 (HUMAN 5 LIPOXYGENASE) [µM]	Structure (SMILES)
95	2		COC(=O)[C@@H](Cc1ccccc1)NC(=O)Cc1ccc(OC(C)C)c(Cl)c1 [3-Chloro-4-isopropyloxyphenylacetyl-D-phenylalanine methyl ester]
	5.4	14	COC(=O)[C@@H](Cc1c[nH]c2ccccc12)NC(=O)Cc1ccc(OCc2ccccc2)c(Cl)c1 [4-Benzyloxy-3-chlorophenylacetyl-D-tryptophan methyl ester]
	4.2	2	CN(CCc1ccccc1)C(=O)Cc1ccc(OCc2ccccc2)c(Cl)c1 [N--[4-Benzyloxy-3-chlorophenylacetyl]-N--methyl-2-phenylethylamine]
	0.7	7	COC(=O)[C@@H](Cc1ccccc1)NC(=O)Cc1ccc(OCCc2ccccc2)c(Cl)c1 [3-Chloro-4-phenylethyloxyphenylacetyl-D-phenylalanine methyl ester]
	2.2	8	CN(CCc1ccccc1)C(=O)Cc1ccc(OCCc2ccccc2)c(Cl)c1 [N--[3-Chloro-4-phenylethyloxyphenylacetyl]-N--methyl-2-phenylethylamine]
28	5		COC(=O)[C@@H](Cc1ccccc1)N(C)C(=O)Cc1ccc(OCCc2ccccc2)c(Cl)c1 [3-Chloro-4-phenylethyloxyphenylacetyl-N--methyl-D-phenylalanine methyl ester]
	1	50	COC(=O)[C@@H](Cc1ccccc1)NC(=O)Cc1ccc(OCC2CC2)c(Cl)c1 [3-Chloro-4-cyclopropylmethyloxyphenylacetyl-D-phenylalanine methyl ester]
	0.25	0.6	COC(=O)[C@@H](Cc1ccccc1)NC(=O)Cc1ccc(OCc2ccccc2)c(Cl)c1 [4-Benzyloxy-3-Chlorophenylacetyl-D-Phenylalanine Methyl Ester]
